{"source": "patent US8697709B2", "about": "“Fused ring heteroaryl kinase inhibitors” (The Regents of the University of California, priority 2008, dated 2014)", "tested_on": "T315I Bcr-Abl BaF3 cells", "experiment": "Cell proliferation (Resazurin) of T315I Bcr-Abl transduced BaF3 cells", "assay_type": "cell-based", "settings": "two day treatment, without IL-3", "data": [{"smiles": "CC(C)n1nc(-c2ccc(NC(=O)Nc3cccc(C(F)(F)F)c3)cc2)c2c(N)ncnc21", "note": "[AD57, 1-(4-(4-amino-1-isopropyl-1H-pyrazolo[3,4-d]pyrimidin-3-yl)phenyl)-3-(3-(trifluoromethyl)phenyl)urea]", "values": [{"measurement": "inhibition of growth of T315I Bcr-Abl BaF3 cells", "value": "equally inhibits the growth"}]}]}
